Laboratory results published in patent US20090269795A1, “Mutant alpha4betadelta GABAA receptor and methods of treating anxiety or irritability” (priority 2007, published 2009).

Assays:
[1] = tested on: α5β2/3γ2 receptors; test: Whole cell patch clamp of GABA-gated current, recombinant receptors in HEK-293 cells; assay type: cell-based, rat; conditions: 30 nM THP
Text: Recombinant receptors: Transfection—Plasmids obtained from S. Vicini (rat α1, α5, β2, β3 and γ2), P. Whiting (human α4 and δ) and N. L. Harrison (mouse α4) were propagated in E coli DH5α and prepared using Qiagen Maxi- or Midi-prep kits. (Rat, mouse and human α1, β2, β3 and γ2 subunits are identical or nearly identical.) All receptors were transfected at a 1:1:1 ratio, except α1β2γ2 (1:1:5)^12, α4βδ (5:1:5)^13 and α4β2γ2 (5:1:1). HEK-293 cells were maintained in medium (DMEM:Ham's F-12 1:1) supplemented with 10% fetal calf serum at 37° C. in a humid 5% CO2 atmosphere.
The pipet solution contained (in mM): N-methyl-D-glucamine chloride 120, Cs4BAPTA 5 (Calbiochem), Mg-ATP 5, and an ATP regeneration system (20 mM Tris phosphocreatine and creatine kinase). Internal [Cl^−] or the holding potential were varied, using gluconate as the anion, to alter the direction of Cl^− flow, corrected for the junction potential.
HEK-293 cells were maintained in medium (DMEM:Ham's F-12 1:1) supplemented with 10% fetal calf serum at 37° C. in a humid 5% CO2 atmosphere.

[2] = tested on: CA1 hippocampal pyramidal cells; test: Tonic GABAergic current, perforated-patch voltage-clamp, hippocampal slice; assay type: cell-based, mouse
Procedure: Tonic current was recorded as the difference current produced by the selective GABAA receptor antagonist gabazine (120 μM) before and after 30 nM THP^4,29, while gramicidin perforated-patch recordings^33 were accomplished using 140 mM KCl plus 25 μg ml^−1 gramicidin in the pipet solution, recorded when the access resistance dropped to <60 MΩ after tight seal formation. Estimates of the direction of Cl^− current were obtained by recording using tight-seal cell-attached techniques^31 (>1 GΩ seal) in current clamp mode. A downward deflection signified outward (i.e., hyperpolarizing) Cl^− current.
One complication of whole-cell patch clamp recording is that normal ionic gradients are disrupted. Therefore, in order to verify that THP reduced tonic GABAergic currents in intact cells under conditions of unperturbed internal Cl^−, we directly recorded pharmacologically isolated tonic GABAergic current from the soma using perforated-patch voltage-clamp techniques in the hippocampal slice.

[3] = tested on: female C57BL6 mice; test: Elevated plus maze (with or without restraint stress); assay type: in vivo, mouse
Text: Animal subjects. Prepubertal and pubertal female C57BL6 mice (3½-6 weeks old, +/+ and δ^−/−1) were housed in a reverse light:dark cycle (12:12). Both sets of mice were originally supplied by G. Homanics (Univ. of Pittsburgh), and were bred on site, with +/+ mice supplemented from Jackson Laboratories (Bar Harbor, Me.). Initially, age-matched+/+littermates of the δ^−/−were used as controls, but because they were indistinguishable from C57BL6, data from both groups were pooled. Genotyping of the tails verified that mice were homozygous δ^−/−. Some animals (+/+ or δ^−/−) were injected with finasteride (1,(5α)-androstene-4-aza-3-one-N-tert-butyl-17β-carboxaminde, Steraloids, 50 mg kg^, −1 intraperitoneally, 3 days) to block THP synthesis^2 or oil vehicle on a daily basis 1-1.5 h before dark onset, when THP levels increase, and tested 30 min. later. The onset of puberty was determined by vaginal opening, and pubertal mice tested on the day of first metestrus, identified by vaginal morphology and verification of first estrus the previous day. Mice with vaginal smears representative of diestrus were excluded from the study. Individual stages of puberty were not distinguished, and pre-pubertal mice were used before any visible signs of pubertal development, assessed by development of the peri-vaginal area. In some cases, pubertal mice were injected with replacement THP (3α-OH-5β-pregnan-20-one, 10 mg kg^−1, intraperitoneally in oil) for three days before testing. Procedures were in accordance with the SUNY Downstate Institutional Animal Care and Use Committee.
Restraint stress. In order to test the effect stress-induced release of THP^6,46,47 on anxiety, mice were restrained in a clear Plexiglas tube-type holder (Harvard Apparatus) for 45 min. and tested 20 min. later on the elevated plus maze (see Supplementary Methods). Open arm time was evaluated for 5 min. on the elevated plus maze. A decrease in open arm time reflects an increase in anxiety^18. In all cases, the results from each mouse tested after restraint was expressed relative to the averaged results from the sham controls, which were identical to the stressed animals (age, genotype, sex, drug-injected), except that they were not subjected to restraint stress.
Elevated plus maze. Testing rodent behavior on the elevated plus maze is an established animal model of anxiety^31. The plus maze consists of four 8×35 cm arms at 90° angles, elevated 57 cm above the floor. Two arms are enclosed by 33 cm walls, and two arms have no walls (“open arms”). […] Each animal was initially acclimated to the room for 30 min-1 h before being placed in the center of the maze, and exploratory activity recorded for 5 min. […]

SMILES: CC(=O)[C@H]1CC[C@H]2[C@@H]3CC[C@H]4C[C@H](O)CC[C@]4(C)[C@H]3CC[C@]12C [THP, 3α-OH-5α[β]-pregnan-20-one]
- effect on outward current [1]: either increased or had no effect
- depression of outward GABAergic current ([2]; 30 nM THP, pubertal, 1 μM TTX, 1 μM GABA): 40±8%
- effect on post-synaptic GABAergic tonic current ([2]; before puberty): had no effect
- effect on reversal potential ([2]; pubertal): did not alter the reversal potential
- effect on GABA-gated conductance (gabazine-sensitive slope) ([2]; pubertal, 10 mV steps −60 to −40 mV): decreased the GABA-gated conductance
- decrease of open arm time ([3]; 10 mg kg−1 intraperitoneally, acute, after onset of puberty): 35±8%
- locomotor activity ([3]; 10 mg kg−1 intraperitoneally, after onset of puberty): without changing locomotor activity
- anxiety response to stress after steroid replacement ([3]; replacement THP 10 mg kg−1 i.p. for three days at puberty): did not exhibit an anxiety response to stress
